Measured values taken from patent publication US10258639B2, “Methods for treating insulin resistance and for sensitizing patients to GLP1 agonist therapy” (Research Development Foundation, priority 2014, dated 2019).

Columns and labels:
PKIB in INS1 cells = assay: PKIB expression (mRNA/protein) in INS1 cells; format: cell-based, rat; conditions: DMOG 1 mM
Description: Moreover, RNAi-mediated depletion of HIF-1α also disrupted PKIB induction, whereas HIF-1α over-expression potentiated it (FIG. 5f, FIGS. 10e and 10f).
(§1) INS-1 insulinoma cells were cultured in RPMI (corning cellgro) containing 10% fetal bovine serum (Gemini Bio Products), 100 μg/mL penicillin-streptomycin and 1 mM sodium pyruvate (corning cellgro). MIN6 cells were grown in DMEM (corning cellgro) with 10% FBS, 100 μg/mL penicillin-streptomycin and 70 uM beta-mercaptoethanol. For chronic glucose experiments, cells were maintained under low (2.8 mM) or high (20 mM) glucose for 3 days. Exendin-4 (10 nM), Forskolin (10 μM), KCl (40 mM), DMOG (1 mM) and rapamycin (50 nM) were added to cells as indicated. Cellular cAMP levels were measured using an ELISA kit (Cayman Chemical Company) according to manufacturer's instructions.
Total RNAs from cells or primary islets were extracted using Trizol and cDNA was generated using the Transcriptor First Strand cDNA Synthesis kit (Roche Applied Science). cDNAs were quantified on a lightcycler 480 instrument (Roche Applied Science). […] Libraries were quantitated by Qubit (Invitrogen), and run on a MiSeq instrument with paired-end 75 bp reads using v3 chemistry (Illumina) Data were analyzed by tophat2 and cuffdiff against the mouse mm10 genome build. […]

human GLP1 receptor = human GLP1 receptor (Homo sapiens, UniProt P43220); conditions: greater affinity vs native GLP1; cited from earlier work
human GLP1 receptor, sequence (P43220 24-463): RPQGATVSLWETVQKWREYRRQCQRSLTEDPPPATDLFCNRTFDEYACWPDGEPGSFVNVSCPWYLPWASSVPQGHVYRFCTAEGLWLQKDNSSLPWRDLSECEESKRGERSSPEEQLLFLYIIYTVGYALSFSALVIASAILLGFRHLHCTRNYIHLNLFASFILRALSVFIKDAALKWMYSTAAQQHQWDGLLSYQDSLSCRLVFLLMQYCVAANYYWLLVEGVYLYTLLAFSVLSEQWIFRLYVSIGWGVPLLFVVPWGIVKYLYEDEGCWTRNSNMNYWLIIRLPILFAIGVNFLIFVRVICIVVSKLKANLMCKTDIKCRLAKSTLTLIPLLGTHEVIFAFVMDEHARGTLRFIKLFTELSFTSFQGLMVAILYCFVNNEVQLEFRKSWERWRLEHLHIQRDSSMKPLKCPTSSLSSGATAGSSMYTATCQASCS

[1] = mildly hyperglycaemic patients with Type 2 diabetes on metformin (Ratner et al. 2010); cited from earlier work
[2] = Matthews et al. 2008; cited from earlier work
[3] = system: CREB (Ser133) / CRTC2 in INS1 insulinoma cells; assay: Immunoblot of CREB phosphorylation and CRTC2 dephosphorylation in INS1 insulinoma cells; format: cell-based, rat; conditions: within 30 minutes, FSK 10 μM, KCl 40 mM
Description: as §1
Total protein from cultured cells or primary islets was extracted in a Tris-HCl buffer containing 0.5% NP40, protease and phosphatase inhibitors. Proteins were quantified using Bradford reagent and separated using SDS-PAGE. For cellular fractionation, cells were resuspended in hypotonic lysis buffer (40 mM TrisHCl PH 7.4, 10 mM NaCl, 1 mM EDTA with DTT and protease inhibitors). Cells were lysed using a dounce homogenizer and centrifuged. Cytosolic supernatants were collected. Nuclear pellets were washed 3 times and resuspended in nuclear extraction buffer (40 mM TrisHCl PH 7.4, 420 mM NaCl, 10% Glycerol, 1 mM EDTA). Samples were sonicated and centrifuged. Nuclear supernatants were collected. […]

Molecule: COC(=O)CNC(=O)C(=O)OC [DMOG]
- PKIB expression (PKIB in INS1 cells): upregulated PKIB expression

Molecule: Lixisenatide: exendin-4-based GLP1 receptor agonist
- affinity for the human GLP1 receptor compared with native GLP1 (human GLP1 receptor): approximately 4 fold
- glycaemic control [1]: significantly improve glycaemic control

Molecule: Albiglutide: recombinant human serum albumin (HSA)-GLP1 hybrid protein; dipeptidyl peptidase-4-resistant glucagon-like peptide-1 dimer fused to human albumin
- half-life after administration [2]: four to seven

Molecule: [Cl-].[K+] [KCl]
- phosphorylation of CREB at Ser133 [3]: stimulated CREB phosphorylation to a lesser extent
